Results on four compounds are retold here after patent publication US4476298A, “Erythromycin A derivatives” (Taisho Pharmaceutical Co., Ltd., priority 1981, dated 1984).

Converted amounts (≈) assume the structure as drawn. Where two headings read alike, the source gives them in different places.

Assay in all cases: antibacterial activity (MIC), agar plate dilution method
Common to all, as to type: cell-based

The test system of assay [1] is Staphylococcus aureus smith. The conditions noted are these: for MIC: Staphylococcus aureus, read-out: MIC value (minimal inhibitory concentration). On the procedure:
(§1) Erythromycin A was used as a control, and the compounds of formula I derived from Fractions A, B and C were tested for antibacterial activity against various bacteria by the agar plate dilution method.

Assay [2] deals with Staphylococcus aureus FDA 209 P. The settings on record: for MIC: Staphylococcus aureus. On the procedure:
as §1

For assay [3], the system named is Micrococcus luteus NIHJ. The settings on record: for MIC: read-out: MIC value (minimal inhibitory concentration). The protocol: as §1
The subject of assay [4] is Staphylococcus epidermidis IID 866. The settings on record: for MIC: Staphylococcus epidermidis. The protocol: as §1
The subject of assay [5] is Streptococcus faecalis ATCC 8043. The conditions noted are these: for MIC: Enterococcus faecalis. The protocol: as §1
Assay [6] relates to Bacillus subtilis EM-R. The settings on record: for MIC: Bacillus subtilis, read-out: MIC value (minimal inhibitory concentration), Bacillus subtilis EM-R, strain resistant to erythromycin. On the procedure: as §1
Assay [7] concerns Staphylococcus aureus TPR 25. The settings on record: for MIC: Staphylococcus aureus. On the procedure:
as §1

In assay [8] the test system is Staphylococcus aureus TPR 23. The settings on record: for MIC value (minimal inhibitory concentration): Staphylococcus aureus TPR 23, strain resistant to erythromycin; for MIC: Staphylococcus aureus. The protocol:
as §1

The subject of assay [9] is Staphylococcus aureus TPR 13. The conditions noted are these: for MIC: Staphylococcus aureus. The protocol: as §1
Where [10] appears, read: Staphylococcus aureus smith, agar plate dilution.
Setting [11] is: Micrococcus luteus NIHJ, agar plate dilution.
[12] abbreviates: FDA209, Staphylococcus aureus FDA 209 P, agar plate dilution, read-out: MIC value (minimal inhibitory concentration).
Setting [13] is: IID866, Staphylococcus epidermidis IID 866, agar plate dilution, read-out: MIC value (minimal inhibitory concentration).
Setting [14] is: ATCC8043, Streptococcus faecalis ATCC 8043, agar plate dilution, read-out: MIC value (minimal inhibitory concentration).
[15] abbreviates: TPR25, Staphylococcus aureus TPR 25, strain resistant to erythromycin, agar plate dilution, read-out: MIC value (minimal inhibitory concentration).
Where [16] appears, read: TPR13, Staphylococcus aureus TPR 13, strain resistant to erythromycin, agar plate dilution, read-out: MIC value (minimal inhibitory concentration).

On to `CC[C@H]1OC(=O)[C@H](C)[C@@H](O[C@H]2C[C@@](C)(OC)[C@@H](OC)[C@H](C)O2)[C@H](C)[C@@H](O[C@@H]2O[C@H](C)C[C@H](N(C)C)[C@H]2O)[C@@]2(C)C[C@@H](C)C(OC)(O2)[C@H](C)[C@H]2OC(=O)O[C@@]21C` (single isomer, unassigned) [B], for which the “MIC value (minimal inhibitory concentration)” value in [1] (setting [10]) is 0.8 µg/mL (≈ 1.02 µM); in [2] (Staphylococcus aureus FDA 209 P, agar plate dilution), 0.1 µg/mL (≈ 0.127 µM); in assay [3] (setting [11]), under 0.05 µg/mL; in assay [4] (Staphylococcus epidermidis IID 866, agar plate dilution), 0.8 µg/mL (≈ 1.02 µM); in [5] (Streptococcus faecalis ATCC 8043, agar plate dilution) it was 0.1 µg/mL (≈ 0.127 µM); in assay [6] (Bacillus subtilis EM-R, strain resistant to erythromycin), 0.8 µg/mL (≈ 1.02 µM). In addition, the “MIC value (minimal inhibitory concentration)” value in assay [7] (Staphylococcus aureus TPR 25, strain resistant to erythromycin, agar plate dilution) stood at 3.1 µg/mL (≈ 3.93 µM); in assay [8] (agar plate dilution), 6.25 µg/mL (≈ 7.93 µM); in assay [9] (Staphylococcus aureus TPR 13, strain resistant to erythromycin, agar plate dilution), 3.1 µg/mL (≈ 3.93 µM).
For `CC[C@H]1OC(=O)[C@H](C)[C@@H](O[C@H]2C[C@@](C)(OC)[C@@H](OC)[C@H](C)O2)[C@H](C)[C@@H](O[C@@H]2O[C@H](C)C[C@H](N(C)C)[C@H]2O)[C@@]2(C)C[C@@H](C)C(OC)(O2)[C@H](C)[C@H]2OC(=O)O[C@@]21C` (single isomer, unassigned) [A], the MIC in assay [1] (setting [10]) is 0.4 µg/mL (≈ 0.508 µM); in assay [2] (setting [12]), at most 0.05 µg/mL; in assay [3] (setting [11]) it was under 0.05 µg/mL; in [4] (setting [13]) it was 0.4 µg/mL (≈ 0.508 µM); in assay [5] (setting [14]), at most 0.05 µg/mL; in [6], 0.4 µg/mL (≈ 0.508 µM). Further, the MIC in assay [7] (setting [15]) and in assay [9] (setting [16]) was 1.6 µg/mL (≈ 2.03 µM) in each case. Also, the “MIC value (minimal inhibitory concentration)” value in assay [8] (agar plate dilution) was 3.1 µg/mL (≈ 3.93 µM).
On to `CC[C@H]1OC(=O)[C@H](C)[C@@H](O[C@H]2C[C@@](C)(OC)[C@@H](O)[C@H](C)O2)[C@H](C)[C@@H](O[C@@H]2O[C@H](C)C[C@H](N(C)C)[C@H]2O)[C@](C)(O)C[C@@H](C)C(=O)[C@H](C)[C@@H](O)[C@]1(C)O` [Erythromycin A], for which the MIC in assay [1] is 0.2 µg/mL (≈ 0.273 µM); in assay [2] (FDA209, read-out: MIC value (minimal inhibitory concentration)), at most 0.05 µg/mL; in [3] (Micrococcus luteus), under 0.05 µg/mL; in [4] (IID866, read-out: MIC value (minimal inhibitory concentration)), 0.4 µg/mL (≈ 0.545 µM); in assay [5] (ATCC8043, read-out: MIC value (minimal inhibitory concentration)), at most 0.05 µg/mL; in assay [6] it was over 100 µg/mL. Besides, the MIC in [7] (TPR25, read-out: MIC value (minimal inhibitory concentration)) was 50 µg/mL (≈ 68.1 µM); in assay [8] (TPR23, read-out: MIC value (minimal inhibitory concentration)), 100 µg/mL (≈ 136 µM); in [9] (TPR13, read-out: MIC value (minimal inhibitory concentration)), 25 µg/mL (≈ 34.1 µM).
Consider `CC[C@H]1OC(=O)[C@H](C)[C@@H](O[C@H]2C[C@@](C)(OC)[C@@H](OC)[C@H](C)O2)[C@H](C)[C@@H](O[C@@H]2O[C@H](C)C[C@H](N(C)C)[C@H]2O)[C@@]2(C)C[C@@H](C)C(O)(O2)[C@H](C)[C@H]2OC(=O)O[C@@]21C` (single isomer, unassigned) [C], for which the MIC in [1] (setting [10]) was 0.2 µg/mL (≈ 0.258 µM); in assay [2] (setting [12]), at most 0.05 µg/mL; in assay [3] (setting [11]) it was under 0.05 µg/mL; in assay [4] (setting [13]) it was 0.4 µg/mL (≈ 0.517 µM); in [5] (setting [14]) it was at most 0.05 µg/mL; in [6] it was 0.4 µg/mL (≈ 0.517 µM). The MIC in assay [7] (setting [15]) is 0.8 µg/mL (≈ 1.03 µM); in [8] (TPR23, Staphylococcus aureus TPR 23, strain resistant to erythromycin, agar plate dilution, read-out: MIC value (minimal inhibitory concentration)), 3.1 µg/mL (≈ 4.01 µM); in assay [9] (setting [16]) it was 0.8 µg/mL (≈ 1.03 µM).
